pIC50: −log10 of the molar value.
Tests used:
[1] = target: RAC-alpha serine/threonine-protein kinase (Homo sapiens, UniProt P31749); test: Inhibition of Akt1 (unknown origin) expressed in Escherichia coli using peptide as substrate incubated for 1 hr by HTRF assay
[2] = tested on: OVCAR-8; test: Cytotoxicity against human OVCAR8 cells assessed as reduction in cell viability incubated for 72 hrs by SRB assay; format: functional, cell-based; settings: OVCAR-8, 72 h
[3] = tested on: HCT-116; test: Cytotoxicity against human HCT116 cells assessed as reduction in cell viability incubated for 72 hrs by SRB assay; format: functional, cell-based; settings: HCT-116, 72 h
[4] = tested on: MM1.S; test: Antiproliferative activity against human MM1S cells assessed as reduction in cell viability; format: functional, cell-based
[5] = tested on: RPMI-8226; test: Antiproliferative activity against human RPMI8226 cells assessed as reduction in cell viability; format: functional, cell-based
[6] = Antiproliferative activity against human CEM/C1 cells assessed as reduction in cell viability; format: functional, cell-based
[7] = tested on: MOLT-4; test: Antiproliferative activity against human MOLT4 cells assessed as reduction in cell viability; format: functional, cell-based
[8] = tested on: MV4-11; test: Antiproliferative activity against human MV4-11 cells assessed as reduction in cell viability; format: functional, cell-based
[9] = tested on: HuT78; test: Antiproliferative activity against human HUT78 cells assessed as reduction in cell viability; format: functional, cell-based
[10] = tested on: JVM-2; test: Antiproliferative activity against human JVM2 cells assessed as reduction in cell viability; format: functional, cell-based
[11] = tested on: U-937; test: Antiproliferative activity against human U937 cells assessed as reduction in cell viability; format: functional, cell-based
[12] = tested on: K562; test: Antiproliferative activity against human K562 cells assessed as reduction in cell viability; format: functional, cell-based
[13] = tested on: MM1.S; test: Antitumor activity against human MM1S cells xenografted in BALB/c mouse assessed as tumor growth inhibition at 30 mg/kg, po administered for 14 days; format: functional; settings: 336 h, read-out: TGI
[14] = tested on: CCRF-CEM; test: Antiproliferative activity against human CCRF-CEM cells assessed as reduction in cell viability; format: functional, cell-based
[15] = Antiproliferative activity against human Mino cells assessed as reduction in cell viability; format: functional, cell-based
[16] = tested on: HCT-116; test: Induction of apoptosis in human HCT116 cells assessed as apoptotic cells at 0.4 uM incubated for 72 hrs by annexin V - FITC and propidium iodide staining based flow cytometry (reference value: 6.99 %); format: functional
[17] = tested on: HCT-116; test: Induction of apoptosis in human HCT116 cells assessed as apoptotic cells at 2 uM incubated for 72 hrs by annexin V - FITC and propidium iodide staining based flow cytometry (reference value: 6.99 %); format: functional
[18] = tested on: HCT-116; test: Induction of apoptosis in human HCT116 cells assessed as apoptotic cells at 10 uM incubated for 72 hrs by annexin V - FITC and propidium iodide staining based flow cytometry (reference value: 6.99 %); format: functional
[19] = Tmax in Sprague-Dawley rat at 10 mg/kg, po measured up 48 hrs by LC-MS/MS analysis; format: ADME, organism-based; settings: in vivo
[20] = Half life in Sprague-Dawley rat at 10 mg/kg, po measured up 48 hrs by LC-MS/MS analysis; format: ADME, organism-based; settings: in vivo
[21] = Cmax in Sprague-Dawley rat at 10 mg/kg, po measured up 48 hrs by LC-MS/MS analysis; format: ADME, organism-based; design: dose 10 mg/kg, route oral; settings: in vivo
[22] = AUC (0 to t) in Sprague-Dawley rat at 10 mg/kg, po measured up 48 hrs by LC-MS/MS analysis; format: ADME, organism-based; settings: in vivo
[23] = AUC (0 to infinity) in Sprague-Dawley rat at 10 mg/kg, po measured up 48 hrs by LC-MS/MS analysis; format: ADME, organism-based; design: dose 10 mg/kg, time infinity, route oral; settings: in vivo
[24] = Oral bioavailability in Sprague-Dawley rat at 10 mg/kg, measured up 48 hrs by LC-MS/MS analysis; format: ADME, organism-based; settings: in vivo
[25] = Tmax in Sprague-Dawley rat at 2 mg/kg, iv measured up 48 hrs by LC-MS/MS analysis; format: ADME, organism-based; settings: in vivo
[26] = Half life in Sprague-Dawley rat at 2 mg/kg, iv measured up 48 hrs by LC-MS/MS analysis; format: ADME, organism-based; settings: in vivo
[27] = Cmax in Sprague-Dawley rat at 2 mg/kg, iv measured up 48 hrs by LC-MS/MS analysis; format: ADME, organism-based; design: dose 2 mg/kg, route intravenous; settings: in vivo
[28] = AUC (0 to t) in Sprague-Dawley rat at 2 mg/kg, iv measured up 48 hrs by LC-MS/MS analysis; format: ADME, organism-based; settings: in vivo
[29] = AUC (0 to infinity) in Sprague-Dawley rat at 2 mg/kg, iv measured up 48 hrs by LC-MS/MS analysis; format: ADME, organism-based; design: dose 2 mg/kg, time infinity, route intravenous; settings: in vivo
[30] = target: hERG (KCNH2) (Homo sapiens, UniProt Q12809); test: Inhibition of human ERG expressed in HEK293 cells at 3 uM at - 40 mV holding potential by whole cell patch clamp assay relative to control; format: cell-based; settings: HEK293 cells expressing human ERG
[31] = Stability in mouse liver microsomes assessed as remaining compound at 100 ug/ml incubated for 1.5 hrs by LC-MS analysis; format: ADME, Microsome; settings: read-out: Stability
[32] = Stability in rat liver microsomes assessed as remaining compound at 100 ug/ml incubated for 1.5 hrs by LC-MS analysis; format: ADME, Microsome; settings: read-out: Stability
[33] = Stability in dog liver microsomes assessed as remaining compound at 100 ug/ml incubated for 1.5 hrs by LC-MS analysis; format: ADME, Canis lupus familiaris, Microsome; settings: read-out: Stability
[34] = Stability in human liver microsomes assessed as remaining compound at 100 ug/ml incubated for 1.5 hrs by LC-MS analysis; format: ADME, Microsome; settings: read-out: Stability
[35] = Stability in rat plasma assessed as remaining compound at 100 ug/ml incubated for 1.5 hrs by LC-MS analysis; format: ADME, cell-free; settings: read-out: Stability
[36] = Stability in human plasma assessed as remaining compound at 100 ug/ml incubated for 1.5 hrs by LC-MS analysis; format: ADME, cell-free; settings: read-out: Stability
[37] = Toxicity in BALB/c mouse xenografted with human MM1S cells assessed as body weight loss at 15 to 30 mg/kg, po administered once daily for 14 days; format: organism-based; settings: in vivo, 336 h
[38] = tested on: MM1.S; test: Antitumor activity against human MM1S cells xenografted in BALB/c mouse assessed as tumor growth inhibition at 15 mg/kg, po administered for 14 days; format: functional; settings: 336 h, read-out: TGI

Chain of RAC-alpha serine/threonine-protein kinase (P31749 whole entry): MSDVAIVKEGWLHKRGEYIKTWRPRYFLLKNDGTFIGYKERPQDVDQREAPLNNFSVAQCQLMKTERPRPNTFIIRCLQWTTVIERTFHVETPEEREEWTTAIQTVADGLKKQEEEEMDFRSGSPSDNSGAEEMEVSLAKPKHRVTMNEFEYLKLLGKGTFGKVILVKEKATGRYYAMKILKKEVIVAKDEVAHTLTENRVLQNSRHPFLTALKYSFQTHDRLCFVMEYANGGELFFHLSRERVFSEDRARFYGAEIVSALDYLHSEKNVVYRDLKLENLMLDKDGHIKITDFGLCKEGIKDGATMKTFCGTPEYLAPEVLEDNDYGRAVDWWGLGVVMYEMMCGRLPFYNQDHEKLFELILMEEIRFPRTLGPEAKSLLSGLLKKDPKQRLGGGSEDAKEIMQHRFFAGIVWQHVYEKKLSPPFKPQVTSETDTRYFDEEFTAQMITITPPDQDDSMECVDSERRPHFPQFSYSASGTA
Chain of hERG (KCNH2) (Q12809 whole entry): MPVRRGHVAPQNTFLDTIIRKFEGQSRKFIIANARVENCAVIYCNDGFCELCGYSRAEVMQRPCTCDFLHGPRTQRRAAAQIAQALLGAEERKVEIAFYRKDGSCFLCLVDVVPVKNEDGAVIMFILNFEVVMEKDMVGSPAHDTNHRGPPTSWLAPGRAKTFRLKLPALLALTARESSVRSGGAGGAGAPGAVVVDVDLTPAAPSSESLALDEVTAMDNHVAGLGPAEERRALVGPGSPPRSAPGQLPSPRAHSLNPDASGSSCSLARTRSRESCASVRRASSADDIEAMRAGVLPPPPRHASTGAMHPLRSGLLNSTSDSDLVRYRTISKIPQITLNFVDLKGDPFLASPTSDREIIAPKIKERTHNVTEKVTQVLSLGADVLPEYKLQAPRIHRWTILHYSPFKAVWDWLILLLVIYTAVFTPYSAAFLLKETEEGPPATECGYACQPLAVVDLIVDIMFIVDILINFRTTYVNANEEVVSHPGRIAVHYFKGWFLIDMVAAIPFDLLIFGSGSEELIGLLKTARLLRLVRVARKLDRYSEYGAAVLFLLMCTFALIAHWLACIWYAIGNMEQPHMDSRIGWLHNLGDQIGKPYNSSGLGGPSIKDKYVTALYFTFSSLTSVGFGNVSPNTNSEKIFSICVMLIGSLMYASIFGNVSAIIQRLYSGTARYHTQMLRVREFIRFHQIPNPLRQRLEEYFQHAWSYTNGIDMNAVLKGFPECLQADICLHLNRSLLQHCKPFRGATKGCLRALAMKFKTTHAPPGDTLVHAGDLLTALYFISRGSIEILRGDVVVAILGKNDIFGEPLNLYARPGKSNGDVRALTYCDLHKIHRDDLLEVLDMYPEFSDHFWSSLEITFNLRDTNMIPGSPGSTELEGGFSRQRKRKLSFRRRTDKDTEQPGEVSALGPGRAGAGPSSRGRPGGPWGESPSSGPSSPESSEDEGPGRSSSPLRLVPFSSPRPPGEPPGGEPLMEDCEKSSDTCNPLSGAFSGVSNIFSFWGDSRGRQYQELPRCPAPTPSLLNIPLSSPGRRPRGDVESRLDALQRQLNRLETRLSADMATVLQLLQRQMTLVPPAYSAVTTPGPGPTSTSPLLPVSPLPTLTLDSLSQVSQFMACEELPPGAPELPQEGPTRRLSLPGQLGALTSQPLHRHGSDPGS

Cn1ncc(Cl)c1-c1csc(C(=O)N[C@@H]2CNCC[C@H]2c2ccc(Cl)cc2)c1
pIC50 [1]: 7.86
pIC50 [2]: 5.24
pIC50 [3]: 5.92

Cn1ncc(Cl)c1-c1ccc(C(=O)N[C@@H]2CNCC[C@H]2c2ccc(Cl)cc2)s1
pIC50 [1]: 8.74
pIC50 [2]: 5.83
pIC50 [3]: 5.52

Cn1ncc(Cl)c1-c1ccc(C(=O)N[C@@H]2CNCC[C@H]2c2ccc(Cl)c(C(F)(F)F)c2)s1
pIC50 [1]: 7.19
pIC50 [2]: 6.19
pIC50 [3]: 5.85

Cn1nccc1-c1ccc(C(=O)N[C@@H]2CNCC[C@H]2c2cccc(F)c2)s1
pIC50 [1]: 7.97
pIC50 [2]: 5.80
pIC50 [3]: 5.86

Cn1nccc1-c1ccc(C(=O)N[C@@H]2CNCC[C@H]2c2ccc(Cl)cc2)s1
pIC50 [1]: 7.99
pIC50 [2]: 5.86
pIC50 [3]: 5.05

Cn1ncc(Cl)c1-c1cc(C(=O)N[C@H](CN)Cc2ccc(F)c(F)c2)oc1Cl [UPROSERTIB]
pIC50 [2]: 6.27
pIC50 [3]: 5.76
pIC50 [4]: 7.49
pIC50 [5]: 6.27
pIC50 [6]: 7.52
pIC50 [7]: 7.18
pIC50 [8]: 6.20
pIC50 [9]: 6.42
pIC50 [10]: 6.53
pIC50 [11]: 7.00
pIC50 [12]: < 5.52
inhibition in vivo at 30 mg/kg [13]: 36.8%

Cl.Cn1ncc(Cl)c1-c1csc(C(=O)N[C@@H]2CNCC[C@H]2c2cccc(F)c2)c1
pIC50 [1]: 8.90
pIC50 [3]: 6.02
pIC50 [4]: 8.70
pIC50 [5]: 7.31
pIC50 [6]: 8.15
pIC50 [7]: 7.85
pIC50 [8]: 6.36
pIC50 [11]: 6.73
pIC50 [14]: 8.10
pIC50 [15]: 6.27
pIC50 [12]: < 5.52
Activity [16]: 7.73%
Activity [17]: 8.69%
Activity [18]: 24.58%
Tmax [19]: 2.75 h
half-life [20]: 4.74 h
Cmax [21]: 423 ng/mL
AUC(0-t) at 48 h [22]: 3890 ng·h/mL
AUC(0-inf) [23]: 3940 ng·h/mL
bioavailability [24]: 52%
Tmax [25]: 4.98 min
half-life [26]: 3.52 h
Cmax [27]: 1440 ng/mL
AUC(0-t) at 48 h [28]: 1480 ng·h/mL
AUC(0-inf) [29]: 1510 ng·h/mL
inhibition at 3 µM [30]: 40%
remaining at 1.5 h, 100 ug/ml [31]: 82.7%
remaining at 1.5 h, 100 ug/ml [32]: 63.7%
remaining at 1.5 h, 100 ug/ml [33]: 81.3%
remaining at 1.5 h, 100 ug/ml [34]: 88.3%
remaining at 1.5 h, 100 ug/ml [35]: > 99%
remaining at 1.5 h, 100 ug/ml [36]: > 99%
Activity [37]: Toxic
inhibition in vivo at 15 mg/kg [38]: 40.7%
inhibition in vivo at 30 mg/kg [13]: 42.1%

Cn1ncc(CO)c1-c1ccc(C(=O)N[C@@H]2CNCC[C@H]2c2cccc(F)c2)s1
pIC50 [1]: 7.21
pIC50 [2]: 5.14
pIC50 [3]: 5.13

Cn1ncc(Cl)c1-c1csc(C(=O)N[C@@H]2CNCC[C@H]2c2ccc(Cl)c(C(F)(F)F)c2)c1
pIC50 [1]: 7.45
pIC50 [2]: 6.24
pIC50 [3]: 5.73

Cn1ncc(-c2ccncc2)c1-c1ccc(C(=O)N[C@@H]2CNCC[C@H]2c2cccc(F)c2)s1
pIC50 [1]: 7.00
pIC50 [2]: 4.55
pIC50 [3]: 4.62

Cl.Cn1ncc(Cl)c1-c1ccc(C(=O)N[C@@H]2CNCC[C@H]2c2cccc(F)c2)s1
pIC50 [2]: 6.64
pIC50 [3]: 6.36
pIC50 [4]: 7.68
pIC50 [5]: 6.58
pIC50 [6]: 7.55
pIC50 [7]: 7.30
pIC50 [8]: 6.87
pIC50 [9]: 6.53
pIC50 [10]: 6.68
pIC50 [11]: 7.11
pIC50 [12]: < 5.52
Activity [16]: 11.66%
Activity [17]: 22.68%
Activity [18]: 89.62%

Cn1ncc(-c2ccccc2)c1-c1ccc(C(=O)N[C@@H]2CNCC[C@H]2c2cccc(F)c2)s1
pIC50 [1]: 7.15
pIC50 [2]: 5.60
pIC50 [3]: 5.35

C=Cc1cnn(C)c1-c1ccc(C(=O)N[C@@H]2CNCC[C@H]2c2cccc(F)c2)s1
pIC50 [1]: 7.33
pIC50 [2]: 5.50
pIC50 [3]: 5.16

Cn1ncc(C(=O)O)c1-c1ccc(C(=O)N[C@@H]2CNCC[C@H]2c2cccc(F)c2)s1
pIC50 [1]: 7.00
pIC50 [2]: < 4.30
pIC50 [3]: < 4.30

CCc1cnn(C)c1-c1ccc(C(=O)N[C@@H]2CNCC[C@H]2c2cccc(F)c2)s1
pIC50 [1]: 7.31
pIC50 [2]: 5.57
pIC50 [3]: 5.55

Cn1ncc(Br)c1-c1ccc(C(=O)N[C@@H]2CNCC[C@H]2c2cccc(F)c2)s1
pIC50 [1]: 8.26
pIC50 [3]: 6.05

Cc1cnn(C)c1-c1ccc(C(=O)N[C@@H]2CNCC[C@H]2c2cccc(F)c2)s1
pIC50 [1]: 8.05
pIC50 [2]: 5.76
pIC50 [3]: 5.75
